The test system of this experiment is b.End3 cells. Nature of the experiment: Peptide-mediated protein (avidin-FITC/albumin-FITC) delivery to b.End3 cells. Type of experiment: cell-based, mouse. Conditions: N-terminal biotin peptide, increasing concentrations, 1 h, 4 °C, avidin-FITC 50 µg/mL, 30 min, fluorescence, 3 independent experiments, triplicate.

Method: Confluent endothelial monolayers were treated with increasing peptide concentrations in HBSS (1 h at 4 °C, unless otherwise stated). After removing unbound peptide, cells were either incubated in appropriate cell culture medium (37 °C) for varying time-points, or directly treated with neutravidin-FITC or albumin-FITC (0.83 mM, in HBSS, 30 min at 4 °C). After removing unbound protein with thorough HBSS washes, fluorescence (490/525 em/ex) was quantified with a Spark multimode microplate reader (Tecan) or imaged through confocal microscopy (Additional file 1: Diagram S1a–c).

Regarding HAIYPRH [Tf peptide], the “Avidin delivery to b.End3 cells” value was “lower avidin delivery than CFAG”.

The values above are taken from article PMC10699038, “Identifying molecular tags selectively retained on the surface of brain endothelial cells to generate artificial targets for therapy delivery” (Fluids and Barriers of the CNS, 2023).
